Source: patent US10710986B2, “PD-1/PD-L1 inhibitors” (Gilead Sciences, Inc., priority 2018, dated 2020)

Biological target: PD-1/PD-L1 (Homo sapiens (Human), UniProt Q9NZQ7)
Test: PD-1/PD-L1 biochemical protein-protein interaction assay (ALPHA)
Details: 0.3 nM His tagged PD-L1, 2.5 nM biotinylated Fc-PD-1, 60 minutes at 25° C., read-out: IC50 PD-L1-PD1
Experimental: Binding of the protein pairs is measured using a bead based Amplified Luminescent Proximity Homogeneous Assay (ALPHA) platform. Binding of each protein pair results in proximity of the donor and acceptor beads which leads to an increase in ALPHA signal. […] Assays are performed in 25 mM Hepes (pH 7.4), 150 mM NaCl, 3.4 mM EDTA, 0.005% Tween 20, and 0.01% BSA. […] After an assay reaction time of 60 minutes at 25° C., binding was measured with addition of 20 μg/mL ALPHA assay acceptor beads (anti-His coated) and 20 µg/mL ALPHA assay donor beads (streptavidin coated). IC50 values were calculated from the fit of the dose-response curves to a four-parameter equation.

Sequence of PD-1/PD-L1 (Q9NZQ7 19-238): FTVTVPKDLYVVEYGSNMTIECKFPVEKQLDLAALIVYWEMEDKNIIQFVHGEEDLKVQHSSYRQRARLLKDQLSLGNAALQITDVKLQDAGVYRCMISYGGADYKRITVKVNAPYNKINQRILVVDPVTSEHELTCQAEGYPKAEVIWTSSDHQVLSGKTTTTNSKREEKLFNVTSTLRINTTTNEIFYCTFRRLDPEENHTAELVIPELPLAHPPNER

SMILES | IC50
COc1nc(-c2cccc(-c3cccc(-c4cnc(CN5CC6(CCC(=O)N6)C5)c(OC)n4)c3Cl)c2F)cnc1CN1CC2(CCC(=O)N2)C1 [compound 1] | 0.08 nM
COc1nc(-c2cccc(-c3cccc(-c4cnc(CN5CC(O)C5)c(OC)n4)c3Cl)c2F)cnc1CN1CC(O)C1 [compound 2] | 0.135 nM
COc1nc(-c2cccc(-c3cccc(-c4cnc(CN5CC(OC)C5)c(OC)n4)c3Cl)c2F)cnc1CN1CC(OC)C1 [compound 3] | 0.318 nM
COc1nc(-c2cccc(-c3cccc(-c4cnc(CN5CC6(C5)CN(C(C)=O)C6)c(OC)n4)c3Cl)c2F)cnc1CN1CC2(C1)CN(C(C)=O)C2 [compound 4] | 0.086 nM
COc1nc(-c2cccc(-c3cccc(-c4cnc(CNCCO)c(OC)n4)c3Cl)c2F)cnc1CNCCO [compound 5] | 0.213 nM
COc1nc(-c2cccc(-c3cccc(-c4cnc(CNC[C@@H]5CCC(=O)N5)c(OC)n4)c3Cl)c2F)cnc1CNC[C@@H]1CCC(=O)N1 [compound 6] | 0.099 nM
COc1nc(-c2cccc(-c3cccc(-c4cnc(CNC56CC(C#N)(C5)C6)c(OC)n4)c3Cl)c2Cl)cnc1CNC[C@@H]1CCC(=O)N1 [compound 7] | 0.43 nM
COc1nc(-c2cccc(-c3cccc(-c4cnc(CNC56CC(OC)(C5)C6)c(OC)n4)c3Cl)c2Cl)cnc1CNC[C@@H]1CCC(=O)N1 [compound 8] | 0.59 nM
COc1nc(-c2cccc(-c3cccc(-c4cnc(CN5CC(C)(C#N)C5)c(OC)n4)c3Cl)c2Cl)cnc1CNC[C@@H]1CCC(=O)N1 [compound 9] | 0.49 nM
COc1nc(-c2cccc(-c3cccc(-c4cnc(CN5CC(C#N)C5)c(OC)n4)c3Cl)c2Cl)cnc1CNC[C@@H]1CCC(=O)N1 [compound 10] | 0.27 nM
COc1nc(-c2cccc(-c3cccc(-c4cnc(CN[C@@H]5COC[C@H]5O)c(OC)n4)c3Cl)c2Cl)cnc1CNC[C@@H]1CCC(=O)N1 [compound 11] | 0.172 nM
COc1nc(-c2cccc(-c3cccc(-c4cnc(CNC56CC(C5)C6)c(OC)n4)c3Cl)c2Cl)cnc1CNC[C@@H]1CCC(=O)N1 [compound 12] | 1.49 nM
COc1nc(-c2cccc(-c3cccc(-c4cnc(CN5CC(C(N)=O)C5)c(OC)n4)c3Cl)c2Cl)cnc1CNC[C@@H]1CCC(=O)N1 [compound 13] | 0.482 nM
COc1nc(-c2cccc(-c3cccc(-c4cnc(CN5CC(N6CCCC6=O)C5)c(OC)n4)c3Cl)c2Cl)cnc1CNC[C@@H]1CCC(=O)N1 [compound 14] | 0.224 nM
COc1nc(-c2cccc(-c3cccc(-c4cnc(CNC56CC(C(F)(F)F)(C5)C6)c(OC)n4)c3Cl)c2Cl)cnc1CNC[C@@H]1CCC(=O)N1 [compound 15] | 7.51 nM
COc1nc(-c2cccc(-c3cccc(-c4cnc(CN5CC(C)(O)C5)c(OC)n4)c3Cl)c2Cl)cnc1CNC[C@@H]1CCC(=O)N1 [compound 16] | 0.173 nM
COc1nc(-c2cccc(-c3cccc(-c4cnc(CNC[C@H]5CCCN5C(C)=O)c(OC)n4)c3Cl)c2Cl)cnc1CNC[C@@H]1CCC(=O)N1 [compound 17] | 0.163 nM
COc1nc(-c2cccc(-c3cccc(-c4cnc(CNC[C@@H]5CCCN5C(C)=O)c(OC)n4)c3Cl)c2Cl)cnc1CNC[C@@H]1CCC(=O)N1 [compound 18] | 0.266 nM
CNC(=O)[C@@H]1CCCN1Cc1ncc(-c2cccc(-c3cccc(-c4cnc(CNC[C@@H]5CCC(=O)N5)c(OC)n4)c3Cl)c2Cl)nc1OC [compound 19] | 0.199 nM
CNC(=O)[C@H]1CCCN1Cc1ncc(-c2cccc(-c3cccc(-c4cnc(CNC[C@@H]5CCC(=O)N5)c(OC)n4)c3Cl)c2Cl)nc1OC [compound 20] | 0.546 nM
COC[C@H]1CCCN1Cc1ncc(-c2cccc(-c3cccc(-c4cnc(CNC[C@@H]5CCC(=O)N5)c(OC)n4)c3Cl)c2Cl)nc1OC [compound 21] | 0.525 nM
COC[C@@H]1CCCN1Cc1ncc(-c2cccc(-c3cccc(-c4cnc(CNC[C@@H]5CCC(=O)N5)c(OC)n4)c3Cl)c2Cl)nc1OC [compound 22] | 0.506 nM
COc1nc(-c2cccc(-c3cccc(-c4cnc(CN5CCC[C@@H]5CO)c(OC)n4)c3Cl)c2Cl)cnc1CNC[C@@H]1CCC(=O)N1 [compound 23] | 0.221 nM
